How the values were obtained:
[1] = test system: adult zebrafish; assay: 405 nm laser illumination of adult and spinalized zebrafish; type: in vivo
Experimental: Optovin's capacity to function in intact adult animals will impact its suitability for future clinical and research applications. Thus, the effects of 405 nm laser illumination on optovin-treated adult zebrafish were analyzed. […] To determine if fin contraction was voluntary or involuntary, the experiment was repeated using spinalized preparations. Optical control of dorsal fin contraction was preserved in spinalized animals treated with optovin (data not shown). Furthermore, carefully controlled laser illumination of specific regions along the body of spinalized zebrafish produced specific dorsal, ventral, and lateral tail movements reminiscent of those used by intact fish during swimming (data not shown). Because zebrafish TRPA1 is primarily expressed in sensory neurons, these contractions and swimming behaviors likely occur via activation of spinal reflex arcs.
Adult zebrafish (0.5-1.5 years) were briefly anesthetized in ice water and quickly decapitated with a sharp razor blade. Spinalized preparations were incubated in optovin (50 μM) for 1-2 min prior to testing with laser light stimuli (405 nm, 400 μW mm−2).

[2] = test system: zebrafish embryos; assay: Zebrafish behavioral assay (light-dependent motor excitation, excitation score); type: in vivo
Experimental: To identify small molecules for the optical control of endogenous channels, a screen was conducted for compounds that could drive light-dependent motor behaviors in wild-type zebrafish. Zebrafish embryos are particularly well suited for phenotype based chemical screens^28,29. They are blind for the first 3 days of development and other than a one-time motor response to the first light exposure in dark-adapted animals (the photomotor response, PMR), zebrafish embryos are unresponsive to light^31,30 (FIG. 1A). A library of 10,000 structurally diverse synthetic small molecules was screened for compounds that render zebrafish embryos responsive to light. Behavioral responses were measured for each well in comparison to a set of 2,500 DMSO treated controls. This screen identified a single compound, optovin, that increased motor activity greater than 40 standard deviations above the control mean (FIGS. 1A-1C).
A large number of fertilized eggs (up to 5,000 embryos per day) were collected from group mating of Ekkwill or TuAB zebrafish. Embryos were raised in HEPES (10 mM) buffered E3 media in a dark incubator at 28° C. until […]. Groups of ˜8 embryos (28 hpf) were distributed into the wells of flat bottom black-walled 96 well plates filled with E3 media (360 μl). Embryos were then incubated in a dark incubator 25° C. for chemical treatment and subsequent experiments.
The Tim Tec ACTIPROBEβ library contains 10,000 compounds dissolved in DMSO at a stock concentration of 1 mg/ml (˜3 mM). The Tim Tec library was screened at a 1:300 dilution in E3 buffer for a final concentration of ˜10 μM. Negative controls were treated with an equal volume of DMSO. Stock solutions were added directly to zebrafish in the wells of a 96 well plate, mixed, and allowed to incubate for 2-10 hours in the dark prior to behavioral evaluation in the PMR assay. The Tim Tec library (10,000 compounds) was purchased from the Tim Tec corporation (Newark, Del.). The Neurotransmitter Library (700 compounds; cat #2810) was purchased from Biomol International. Reordered hit compounds were dissolved in DMSO and added to wells as described above.
Animals were exposed to a two pulse stimulus train with a 10 s inter-stimulus interval. Exposure to the first pulse was used to trigger the photomotor response, which has a refractory phase of approximately 10 minutes. […] In a typical assay, 1000 frames of digital video were recorded at 33 fps using a Hamamatsu ORCA-ER camera mounted on a Nikon TE200 microscope with a 1× objective. Instrument control and data measurement were performed using custom scripts for Metamorph Software (Molecular Devices). Each video was saved for review. Light stimuli were generated with a 300-watt xenon bulb housed in a Sutter Lambda LS illuminator and delivered to the well 10 s and 20 s after the start of each video. A cold mirror (reflectance between 300 nm and 700 nm) on the Sutter illuminator was used to block wavelengths outside of this range. Light intensity was measured using a PM100D power meter attached to a S120VC photodiode power sensor (Thorlabs). Where indicated, filters were used to restrict the excitation light to the indicated wavelengths.
To analyze digital video recordings, custom software scripts were used to automatically draw six evenly spaced line segments across each well such that each embryo is likely to be crossed by one of the lines. The software then tracks the average intensity of the pixels for each segment over time. As the embryos move, the light intensity at some of the pixels changes. The motion index was calculated by taking the total absolute difference in pixel intensity between frames. This motion index correlates with the overall amount of motion in the well, both in terms of contraction frequency and number of animals in motion. Behavioral features are quantified by ‘excitation scores’ that are calculated by taking the 75th percentile of the motion index for 3-5 s following the light stimulus. […]

[3] = UV-Vis absorbance spectrum; type: physicochemical
From the text: How might optovin activate TRPA1? When molecules absorb light, photons can excite electrons from their ground state to a […] via intersystem crossing^37. These photoactivated compounds can then undergo reactions by transferring energy or electrons to target molecules, including aqueous molecular oxygen. Optovin is a yellow-colored compound with peak absorbance at 415 nm (FIG. 4A). To determine if optovin is photochemically reactive, it was exposed to increasing intensities of 415 nm light and assayed for reactive oxygen species (ROS) generation.
Assay for singlet oxygen generation using singlet oxygen sensor green (SOSG) UV-vis absorption spectra were recorded at 20 uM in methanol using an Evolution 300 UV-Vis Spectrophotometer (Thermo Fisher Scientific Inc., Waltham, Mass.). 96-well black-sided plates were used for fluorescent probe experiments. […] An Omnilux Clear-U LED light source (Photo Therapeutics Inc), Carlsbad, Calif.) that emits blue light 415-nm+15-nm as a homogeneous spot with an irradiance of 50 mW/cm^2 measured with a power meter (model DMM 199 with 201 standard head; Coherent, Santa Clara, Calif.) that covers an area of one half of a 96-well plate.

Cc1cc(/C=C2/SC(=S)NC2=O)c(C)n1-c1cccnc1 [optovin]
dorsal fin response to 405 nm laser illumination ([1]; intact adult zebrafish): rapid and reversible contraction of the fin
optical control of dorsal fin contraction ([1]; spinalized animals): preserved
light-dependent motor excitation in vivo ([2]; 10 μM, n=3, FIG. 4H): cause light-dependent motor excitation
behavioral excitation (activity of optovin analogs) ([2]; 10 μM, n=5, FIG. 2A): active
response to stimulus wavelengths ([2]; 387, 485, 560 nm or longer): respond to 387 nm (violet) stimuli, but not to 485 nm (blue), 560 nm (green) or longer wavelengths
EC50 ([2]; Danio rerio, dose response, n=5, read-out: EC50 of light-induced motor excitation (behavioral excitation score)): 2000 nM
behavioral excitation by singlet oxygen generating photosensitizers ([2]; FIG. 4F): only optovin causes behavioral excitation
response to 387 nm light stimulus ([2]; TrpA1b homozygous mutant animals): failed to respond
latency of movement ([2]; depending on developmental stage): 100 to 300 ms
relation of stimulus and response duration ([2]; radiation stimuli lasting between 5 and 20 seconds): stimulus and response duration are proportional
increase in motor activity above the control mean (Z-score) ([2]; screen at ~10 μM, light stimulus, vs DMSO treated controls): greater than 40 standard deviations
light response of spinalized preparations ([2]; trunks transected posterior to the hindbrain): respond to light
response to 387 nm light stimulus ([2]; wild-type, TrpA1a heterozygous and TrpA1a homozygous mutant animals): respond to the 387 nm light stimulus with the typical prolonged motor excitation
Off rate (time between end of light stimulus and return to rest) ([2]; zebrafish, in vivo): 2 s
On rate (latency between start of light stimulus and start of embryo movement) ([2]; zebrafish, in vivo): -150 ms
lowest effective dose ([2]; zebrafish, in vivo): 3 µM
radiation stimulus intensity eliciting motor behavior ([2]; zebrafish, in vivo): greater than 1.6 μW/mm^2
response to repeated light pulses ([2]; zebrafish, in vivo): multiple responses can be triggered with repeated light pulses
peak absorbance [3]: 415 nm

— patent publication US9486447B2, “Compositions and methods for controlling neuronal excitation” (The General Hospital Corporation, priority 2011, dated 2016)
